Measured values published in patent US10494377B1, “Bergenin lipoic acid ester with antioxidant activity and a method of preparing the same” (SHAANXI UNIVERSITY OF SCIENCE AND TECHNOLOGY, priority 2018, dated 2019).

Legend:
[1] = DPPH radical scavenging activity assay; assay type: biochemical; conditions: for DPPH clearance rate: n = 3, 30 min, 517 nm; for scavenging effect on DPPH (in words): FIG. 1, 7.02-7020 ppm
Description: The Antioxidant Activity of Bergenin Lipoic Acid Ester Measured by a DPPH Radical Scavenging Activity Assay
2,2-Diphenyl-1-picryl hydrazyl (DPPH) is an organic compound composed of a stable organic radical. In the DPPH molecule, due to the presence of multiple electron-withdrawing —NO2 and large π bonds of the benzene ring, nitrogen free radical is stabilized. Its methanol solution is purple and has a maximum absorption peak at 517 nm. After the addition of an antioxidant, DPPH captures an electron to be paired with the free electron, and the purple fades and turns into a yellow substance. The absorption at 517 nm disappears, and the degree of fading is quantitatively related to the number of electrons it captures. Based on this principle, a spectrophotometer is used to detect the change of the absorbance of the DPPH radical in the sample solution, and the ability of the sample to provide hydrogen atoms and scavenge free radicals can be measured.
Preparation of DPPH solution: measuring exact amount of 2,2-diphenyl-1-picryl hydrazyl (DPPH) and dissolving in methanol to prepare a 0.2 mmol/L DPPH solution, stored at 0° C. in dark.
Preparation of test solutions: Vc (vitamin C, positive control), bergenin lipoic acid ester (sample), bergenin (control), lipoic acid (control), and mixture of bergenin and lipoic acid (reference). The test solutions were serially diluted with acetonitrile, and four groups of controls were separately dissolved in a test tube with a certain amount of methanol to prepare the same concentration gradient as the sample.
Absorbance measurement: Take 2 mL of sample solution (Table 1, number B), add 2 mL of DPPH solution with concentration of 2*10^−4 moL/L, mix and react in the dark at room temperature for 30 min, adjust to zero with methanol, and measure at 517 nm. The absorbance Ai was simultaneously measured for the absorbance Aj of 2 mL of methanol mixed with 2 mL of the sample solution and the absorbance Ao of 2 mL of DPPH solution mixed with 2 mL of acetonitrile (The experimental results are shown in Table 2).
Clearance calculation: clearance rate (%) [1−(Ai−Aj)/Ao]*100%

[2] = Takahashi et al. 2003; cited from earlier work
[3] = Takahashi et al. 2003; cited from earlier work; remark: listed apart in the source

Structure (SMILES) | DPPH clearance rate ([1]; 7.02 ppm) [%] | DPPH clearance rate ([1]; 140.4 ppm) [%] | DPPH clearance rate ([1]; 702 ppm) [%] | DPPH clearance rate ([1]; 2808 ppm) [%] | DPPH clearance rate ([1]; 7020 ppm) [%] | scavenging effect on DPPH (in words) [1] | scavenging effect on DPPH (in words) ([1]; listed as bergenin lipoic acid ester) | scavenging ability compared with Vc (in words) ([1]; concentration above 2808 ppm) | scavenging effect on superoxide anions (in words) [2] | scavenging effect on DPPH free radicals (in words) [3]
O=C1O[C@H]([C@@H](O)CO)C(O)=C1O [Vc, Vitamin C] | 82.01 | 95.17 | 95.70 | 99.90 | 99.90 |  |  |  |  | 
O=C(O)CCCCC1CCSS1 (stereo not shown) [D, Lipoic acid] | 20.40 | 28.64 | 39.66 | 60.54 | 82.95 |  |  |  |  | 
COc1c(O)cc2c(c1O)C1OC(COC(=O)CCCCC3CCSS3)C(O)C(O)C1OC2=O (stereo not shown) [B, Bergenin lipoic acid ester] | 27.56 | 60.83 | 76.34 | 94.92 | 97.64 | better than E | significant scavenging effect on DPPH in a concentration-dependent manner | close to the scavenging ability of Vc |  | 
COc1c(O)cc2c(c1O)[C@@H]1O[C@H](CO)[C@@H](O)[C@H](O)[C@H]1OC2=O [C, Bergenin] | 15.57 | 19.79 | 30.98 | 54.56 | 90.01 |  |  |  | good scavenging effect | good scavenging effect
